{"source": "patent US8349333B2", "about": "“Allergy inhibitor compositions and kits and methods of using the same” (China Agricultural University, priority 2005, dated 2013)", "key": {"cats [1]": {"tested_on": "cats", "assay": "Dermatological scores of control cats treated with nitenpyram", "type": "in vivo", "conditions": "control groups, FIG. 5", "method": "(§1) To determine relationship of infestation and FAD symptom, 10 cats were separated into three groups, including an experimental group with six cats and two control groups with two cats each. One control group was treated nitenpyram, and another was not treated with the nitenpyram. Each experimental cat was lived separated on day 0 and infested with 100 fleas. After two days, all cats in this group were given the nitenpyram to remove the flea from their bodies. Two of the control cats were also given this medicine on day 0. This challenge cycle was repeated every other week for 7 times\nCats were scored by the dermatological assessments two days after ceasing each infestation. The assessments were included erythema, papules, crusts, scale, alopecia, excoriation. The body of each cat was divided into three portions to assess which part might have the most severe clinical outcome. According the previous documented report, three parts were consisted of: (1) back, from the head to the tail of dorsal surface; (2) double lateral abdomen, from the scapula to the tail; (3) chest and underside, from laryngeal to the caudomedial thighs."}, "cats [2]": {"tested_on": "cats", "assay": "Blood smear cell counts of control cats treated with nitenpyram", "type": "in vivo", "method": "as §1\nThe anti-coagulant peripheral blood at 2 ml was collected on days 0, 2, 16, 30, 44, 58, 62 from the experiment group and day 0, 14, 28, 42, 56, 60 from the control groups. The same samples were collected after the immunization. A drop of blood was smeared on a clean glass slide. After the smear was dried, the cells were stained with Wright-Giemsa stain for 15 min. After a rinse in deionized water, the smear was gently dried with Kimwipe paper and dehydrated by 96% and 100% ethonol with each 10 seconds treatment. The slide was then treated with xylene for 30 min.\nAfter the staining, nucleus and cytoplasm of blood cell was distinguished by a blue and pink staining. The percentage of each type of cells was counted by a total number of 200 cells in a view under a light microscope."}, "[3]": {"conditions": "peripheral blood, control group with nitenpyram, day 58"}}}
{"compound": "CCN(Cc1ccc(Cl)nc1)/C(=C/[N+](=O)[O-])NC", "note": "[nitenpyram]", "values": [{"measurement": "dermatology score, cats treated with nitenpyram compared with the ones without treatment", "setting": "cats [1]", "result": "no significant difference"}, {"measurement": "interference with the cell numbers in the cats' peripheral blood", "setting": "cats [2]; comparison of the two control groups", "result": "not to interfere"}, {"measurement": "Basophils (%)", "setting": "cats [2]; [3]", "result": 0.7, "unit": "%"}, {"measurement": "Eosinophils (%)", "setting": "cats [2]; [3]", "result": 3.4, "unit": "%"}, {"measurement": "Lymphocytes (%)", "setting": "cats [2]; [3]", "result": 21.8, "unit": "%"}, {"measurement": "Monocytes (%)", "setting": "cats [2]; [3]", "result": 3.6, "unit": "%"}, {"measurement": "Neutrophils (%)", "setting": "cats [2]; [3]", "result": 70.5, "unit": "%"}]}
